Where two headings read alike, the source gives them in different places.
Key:
[1] = LogP value in octanol/water; details: for logP: octanol/water
[2] = Pour point observation according to ASTM D-97; assay type: physicochemical
Excerpt: A number of working examples were composed and tested for flow indicative of solidification point depression (e.g., pour point temperatures). The compositions tested herein are said to “pour or flow” at the indicated temperature when the PIC of each working example, vertically at rest on a substantially horizontal surface the cylindrical container (radius 1 inch, height 2 inches), flows observably within about 10 seconds when tipped to a substantially horizontal position. This amount of flow is known to be sufficient to indicate that the composition is pourable or pumpable for use in the field, where such concentrates are applied to one or more crude oil transportation or storage systems. The flowing samples are said to have a pour point at temperatures where the flow is observed. The pour point is above the solidification temperature for a given sample. The effect on pour point was observed according to ASTM D-97 test method (including storage for a half hour in a freezer set the associated temperature prior to observation for pour or flow).
The effect on pour point was observed according to ASTM D-97 test method (storage for at least one half hour in a freezer set at a specific temperature (e.g., −60° C.)). The specific low Log P molecules, amounts thereof, amounts of PI polymer, with the balance comprising a refined petroleum distillate or solvent such as HAN; and pour point observations according to ASTM D-97 are listed in Table 2 below.
A comparison of pour points was made between control samples having no low Log P molecules and samples including low Log P molecules to determine the total amount of pour point depression.
The relative amounts of pour point depression of PICs having combination nonyl phenol formaldehyde resin and alpha olefin/maleic anhydride (OMAC) copolymer PIs (specifically OMAC amide polymers), were tested by the ASTM D-97 method. A comparison of pour points was made between control samples having no low Log P molecules and samples including low Log P molecules to determine the total amount of pour point depression.
A low Log P ether molecules was tested for pour point depression in various PICs. The 2-methoxy ethanol was tested in various amounts in PICs and in PICs having various amounts of PI polymer (alkyl phenol formaldehyde resin) therein.

[3] = compounds of table 1 tested for pour point and freezing point

## CC(C)CO [Isobutanol]
[1]
  logP: 0.8

## O=C1CCCCN1
[1]
  logP: 0.33

## O=C1COCCN1 [3-Ketomorpholine, 3-ketomorpholine]
[1]
  logP: -0.49
[1]; Table 1
  logP: −0.49

## CNC(=O)NC
[1]
  logP: -0.25

## O=C1CCCO1 [Butryolactone, butyrolactone]
[2]
  suitability as pour point depressant in PIC compositions: showed promise as pour point depressants
[1]; LogP, Table 7, of the low LogP molecule type
  logP: -0.59

## CC1COC(=O)O1 (stereo not shown)
[1]
  logP: 0.37

## CN(C)CCO [drawing 17]
[1]; LogP, Table 1
  logP: -0.29

## O=C1CCCO1 [drawing 12]
[1]; Table 1
  logP: −0.57

## CN(C)CCO [dimethylethanolamine]
[2]; [3]
  suitability as pour point depressant in PIC compositions: showed promise as pour point depressants

## C1COCCO1 [drawing 23]
[1]
  logP: -0.23

## CC(C)O [Isopropanol]
[2]; [3]
  suitability as pour point depressant in PIC compositions: showed promise as pour point depressants

## 2-methoxy ethanol
[2]; [3]
  suitability as pour point depressant in PIC compositions: showed promise as pour point depressants
[2]; versus the PIC of working example 28
  lowered the pour point by: about 90 °C
[1]; Table 1
  logP: −0.43
[1]; text b150
  Log P: −0.43

## CC(O)CO (stereo not shown) [1,2-propanediol]
[2]; [3]
  suitability as pour point depressant in PIC compositions: showed promise as pour point depressants

## O=C1CCCN1 [2-Pyrollidone, 2-pyrrolidone]
[2]; [3]
  suitability as pour point depressant in PIC compositions: showed promise as pour point depressants
[1]
  logP: -0.18
[1]; Table 1
  logP: −0.18

## O=C1OCCO1
[1]
  logP: 0.01

## C1COCCO1 [1,4-dioxane]
[2]
  suitability as pour point depressant in PIC compositions: showed promise as pour point depressants

## CCCCC(CC)CO (stereo not shown) [2-Ethyl Hexanol, 2-ethyl hexanol]
[1]
  logP: 2.87
[1]; Table 1
  logP: 2.87

## CN1CCCCC1=O
[1]
  logP: 0.57

## CCOCCO
[1]
  logP: -0.05

## COCC(C)OC(C)=O (stereo not shown)
[1]
  logP: 0.73

## CO [Methanol]
[2]
  pour point depressed by: 70 °C
  suitability as pour point depressant in PIC compositions: showed promise as pour point depressants
[1]
  logP: -0.32
[1]; Table 1
  logP: −0.32

## CN1CCCC1=O
[1]
  logP: 0.07

## CCCCOCCO
[1]; LogP, Table 1
  logP: 1.01

From US10465854B2, “Temperature-stable paraffin inhibitor compositions” (Ecolab USA Inc., priority 2016, dated 2019)
